Among the data in US10428083B2, “Heterocyclylmethyl-thienouracile as antagonists of the adenosine-A2B-receptor” (BAYER PHARMA AKTIENGESELLSCHAFT, priority 2015, dated 2019) are IC50 values, retold here.

Read-outs that look alike come from different tables or passages of the source.

This experiment has as its target human adenosine A2b receptor (Homo sapiens (Human), UniProt P29275). Put plainly: Cellular in vitro reporter gene test for A2b receptor activity (CHO-K1, CRE-luciferase, NECA stimulation). The format is cell-based. The essentials:
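CHO-K1 cells with CRE-driven luciferase; antagonists co-incubated with NECA at its EC50, determined in a pre-experiment on each test day. Luciferase read by luminescence 3 h after NECA addition.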
In general terms: In a reporter assay the amount or activity of a reporter protein is the signal.

The mark [1] stands for this setting: recombinant CHO-K1 cell line, CRE-luciferase reporter, antagonism of EC50 concentration of NECA, in some cases means of several determinations, rounded to two significant figures, read-out: A2b receptor IC50.

Chain of human adenosine A2b receptor (P29275 whole entry): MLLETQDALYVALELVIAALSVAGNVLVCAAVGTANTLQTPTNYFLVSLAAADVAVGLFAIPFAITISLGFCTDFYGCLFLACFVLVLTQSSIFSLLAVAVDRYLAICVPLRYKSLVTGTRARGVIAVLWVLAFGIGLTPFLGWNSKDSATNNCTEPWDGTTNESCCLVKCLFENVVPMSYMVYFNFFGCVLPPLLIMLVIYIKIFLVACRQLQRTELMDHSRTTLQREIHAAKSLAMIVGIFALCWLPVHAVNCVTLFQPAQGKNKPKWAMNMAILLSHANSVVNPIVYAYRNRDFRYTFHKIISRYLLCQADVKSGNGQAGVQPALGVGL

In general, IC50 refers to the concentration needed to halve the response being measured. As for `COC(C)Cn1c(=O)c2c(C)c(Cn3nc[nH]c3=O)sc2n(CCC(F)(F)F)c1=O` (single isomer, unassigned) [Example 442, 3-(2-Methoxypropyl)-5-methyl-6-[(5-oxo-4,5-dihydro-1H-1,2,4-triazol-1-yl)methyl]-1-(3,3,3-trifluoropropyl)thieno[2,3-d]pyrimidine-2,4(1H,3H)-dione], under setting [1], the IC50 was 60 nM.

On to `COCCn1c(=O)c2c(C)c(CN3CCNC3=NC#N)sc2n(CC2CCCO2)c1=O` (racemic) [Example 367, [1-{[3-(2-Methoxyethyl)-5-methyl-2,4-dioxo-1-(tetrahydrofuran-2-ylmethyl)-1,2,3,4-tetrahydrothieno[2,3-d]pyrimidin-6-yl]methyl}imidazolidin-2-ylidene]cyanamide], for which the IC50 under setting [1] was 33 nM.

For the compound `Cc1c(CN2CCNC2=O)sc2c1c(=O)n(C(C)C(F)(F)F)c(=O)n2CCC(F)(F)F` (stereo not drawn) [Example 409, 5-Methyl-6-[(2-oxoimidazolidin-1-yl)methyl]-3-(t1,1,1-trifluoropropan-2-yl)-1-(3,3,3-trifluoropropyl)thieno[2,3-d]pyrimidine-2,4(1H,3H)-dione], the IC50 under setting [1] stood at 14 nM.

Take `CCn1c(=O)c2c(C)c(CN3CCNC3=NC#N)sc2n(CC2CCO2)c1=O` (single isomer, unassigned) [Example 258, [1-{[3-Ethyl-5-methyl-1-(oxetan-2-ylmethyl)-2,4-dioxo-1,2,3,4-tetrahydrothieno[2,3-d]pyrimidin-6-yl]methyl}imidazolidin-2-ylidene]cyanamide]: under setting [1], the IC50 worked out at 33 nM.

`CCn1c(=O)c2c(C)c(CN3CCNC(=O)C3=O)sc2n(CC2CCCO2)c1=O` (single isomer, unassigned) [Example 477, 6-[(2,3-Dioxopiperazin-1-yl)methyl]-3-ethyl-5-methyl-1-(tetrahydrofuran-2-ylmethyl)thieno[2,3-d]pyrimidine-2,4(1H,3H)-dione]: the IC50 under setting [1] was 270 nM.

Turning to `CCn1c(=O)c2c(C)c(Cn3nc[nH]c3=O)sc2n(CF)c1=O` [Example 352, 3-Ethyl-1-(fluoromethyl)-5-methyl-6-[(5-oxo-4,5-dihydro-1H-1,2,4-triazol-1-yl)methyl]thieno[2,3-d]pyrimidine-2,4(1H,3H)-dione], the IC50 under setting [1] was 48 nM.

With `COC(C)(C)Cn1c(=O)c2c(C)c(CN3CCNC(=O)C3=O)sc2n(CCCF)c1=O` [Example 280, 6-[(2,3-Dioxopiperazin-1-yl)methyl]-1-(3-fluoropropyl)-3-(2-methoxy-2-methylpropyl)-5-methylthieno[2,3-d]pyrimidine-2,4(1H,3H)-dione], the IC50 under setting [1] turned out to be 82 nM.

With `CCCn1c(=O)n(CC)c(=O)c2c(C)c(CN3CCNC3=O)sc21` [Example 77, 3-Ethyl-5-methyl-6-[(2-oxoimidazolidin-1-yl)methyl]-1-propylthieno[2,3-d]pyrimidine-2,4(1H,3H)-dione], the IC50 under setting [1] is 5.6 nM.

As for `Cc1c(CN2CCNC2=S)sc2c1c(=O)n(CC(F)(F)F)c(=O)n2C` [Example 159, 1,5-Dimethyl-6-[(2-thioxoimidazolidin-1-yl)methyl]-3-(2,22-trifluoroethyl)thieno[2,3-d]pyrimidine-2,4(1H,3H)-dione], the IC50 under setting [1] came out at 14 nM.

With `Cc1c(CN2CCNC(=O)C2=O)sc2c1c(=O)n(CC(C)(C)C)c(=O)n2CCC(F)(F)F` [Example 272, 3-(2,2-Dimethylpropyl)-6-[(2,3-dioxopiperazin-1-yl)methyl]-5-methyl-1-(3,3,3-trifluoropropyl)thieno[2,3-d]pyrimidine-2,4(1H,3H)-dione], the IC50 under setting [1] was determined as 10 nM.

Turning to `Cc1c(CN2CCNC2=O)sc2c1c(=O)n(CC(C)C)c(=O)n2CC1CCOC1` (racemic) [Example 90, 3-Isobutyl-5-methyl-6-[(2-oxoimidazolidin-1-yl)methyl]-1-(tetrahydrofuran-3-ylmethyl)thieno[2,3-d]pyrimidine-2,4(1H,3H)-dione (racemate)], the IC50 under setting [1] is 12 nM.

On to `COCCn1c(=O)c2c(C)c(Cn3cc[nH]c3=O)sc2n(CCC(F)(F)F)c1=O` [Example 344, 3-(2-Methoxyethyl)-5-methyl-6-[(2-oxo-2,3-dihydro-1H-imidazol-1-yl)methyl]-1-(3,3,3-trifluoropropyl)thieno[2,3-d]pyrimidine-2,4(1H,3H)-dione], for which, under setting [1], the IC50 stood at 8.5 nM.

As to `COC(=O)N=C1NCCN1Cc1sc2c(c1C)c(=O)n(C(C)C)c(=O)n2CCC(F)(F)F` [Example 377, Methyl [1-{[3-isopropyl-5-methyl-2,4-dioxo-1-(3,3,3-trifluoropropyl)-1,2,3,4-tetrahydrothieno[2,3-d]pyrimidin-6-yl]methyl}imidazolidin-2-ylidene]carbamate], under setting [1], the IC50 was determined as 3.4 nM.

As to `COCCn1c(=O)n(CCc2ccccc2)c(=O)c2c(C)c(CN3CCOCC3=O)sc21` [Example 13, 1-(2-Methoxyethyl)-5-methyl-6-[(3-oxomorpholin-4-yl)methyl]-3-(2-phenylethyl)thieno[2,3-d]pyrimidine-2,4(1H,3H)-dione], under setting [1], the IC50 worked out at 17 nM.

Consider `Cc1c(CN2CCNC2=NC#N)sc2c1c(=O)n(CC(F)(F)F)c(=O)n2CCC(F)(F)F` [Example 358, [1-{[5-Methyl-2,4-dioxo-3-(2,2,2-trifluoroethyl)-1-(3,3,3-trifluoropropyl)-1,2,3,4-tetrahydrothieno[2,3-d]pyrimidin-6-yl]methyl}imidazolidin-2-ylidene]cyanamide], for which the IC50 under setting [1] amounted to 12 nM.

With `CCn1c(=O)c2c(C(F)(F)F)c(CN3CCOC3=O)sc2n(CCC(F)(F)F)c1=O` [Example 23, 3-Ethyl-6-[(2-oxo-1,3-oxazolidin-3-yl)methyl]-5-(trifluoromethyl)-1-(3,3,3-trifluoropropyl)thieno[2,3-d]pyrimidine-2,4(1H,3H)-dione], under setting [1], the IC50 was 16 nM.

With `COCCn1c(=O)c2c(C)c(Cn3cc[nH]c3=O)sc2n(CC2CCCO2)c1=O` (single isomer, unassigned) [Example 347, 3-(2-Methoxyethyl)-5-methyl-6-[(2-oxo-2,3-dihydro-1H-imidazol-1-yl)methyl]-1-(tetrahydrofuran-2-ylmethyl)thieno[2,3-d]pyrimidine-2,4(1H,3H)-dione], the IC50 under setting [1] was 56 nM.

With `CCn1c(=O)c2c(C)c(CN3CCN(C(=O)OC(C)(C)C)S3(=O)=O)sc2n(CCC(F)(F)F)c1=O` [Example 26, tert-Butyl 5-{[3-ethyl-5-methyl-2,4-dioxo-1-(3,3,3-trifluoropropyl)-1,2,3,4-tetrahydrothieno[2,3-d]pyrimidin-6-yl]methyl}-1,2,5-thiadiazolidine-2-carboxylate 1,1-dioxide], under setting [1], the IC50 was 11 nM.

`CCn1c(=O)c2c(C)c(CN3CCNC3=O)sc2n(CCF)c1=O` [Example 50, 3-Ethyl-1-(2-fluoroethyl)-5-methyl-6-[(2-oxoimidazolidin-1-yl)methyl]thieno[2,3-d]pyrimidine-2,4(1H,3H)-dione]: under setting [1], the IC50 turned out to be 4.6 nM.

For the compound `[2H]C([2H])(c1sc2c(c1C)c(=O)n(C(C)C)c(=O)n2CCOC)N1CCNC1=NC#N` [Example 512, [1-{[3-Isopropyl-1-(2-methoxyethyl)-5-methyl-2,4-dioxo-1,2,3,4-tetrahydrothieno[2,3-d]pyrimidin-6-yl](dideutero)methyl}imidazolidin-2-ylidene]cyanamide], the IC50 under setting [1] was found to be 5.1 nM.

As for `Cc1c(CN2CCNC2=O)sc2c1c(=O)n(CC(C)(C)C)c(=O)n2CC1CCCO1` (single isomer, unassigned) [Example 407, 3-(2,2-Dimethylpropyl)-5-methyl-6-[(2-oxoimidazolidin-1-yl)methyl]-1-(tetrahydrofuran-2-ylmethyl)thieno[2,3-d]pyrimidine-2,4(1H,3H)-dione], the IC50 under setting [1] amounted to 32 nM.

Turning to `COC(=O)N=C1NCCN1Cc1sc2c(c1C)c(=O)n(CC(C)OC)c(=O)n2CCC(F)(F)F` (single isomer, unassigned) [Example 473, Methyl [1-{[3-(2-methoxypropyl)-5-methyl-2,4-dioxo-1-(3,3,3-trifluoropropyl)-1,2,3,4-tetrahydrothieno[2,3-d]pyrimidin-6-yl]methyl}imidazolidin-2-ylidene]carbamate], the IC50 under setting [1] is 3.4 nM.

For `Cc1c(CN2CCNC2=O)sc2c1c(=O)n(C(C)C)c(=O)n2CC1CCCO1` (single isomer, unassigned) [Example 188, 3-Isopropyl-5-methyl-6-[(2-oxoimidazolidin-1-yl)methyl]-1-(tetrahydrofuran-2-ylmethyl)thieno[2,3-d]pyrimidine-2,4(1H,3H)-dione], the IC50 under setting [1] came to 40 nM.

For the compound `Cc1c(CN2CCNC(=O)C2=O)sc2c1c(=O)n(C(C)C)c(=O)n2CC1CCO1` (single isomer, unassigned) [Example 398, 6-[(2,3-Dioxopiperazin-1-yl)methyl]-3-isopropyl-5-methyl-1-(oxetan-2-ylmethyl)thieno[2,3-d]pyrimidine-2,4(1H,3H)-dione], the IC50 under setting [1] is 240 nM.

With `COCCn1c(=O)n(CC(C)(C)C)c(=O)c2c(C)c(CN3CCNC3=NC(=O)OC)sc21` [Example 462, Methyl [1-{[3-(2,2-dimethylpropyl)-1-(2-methoxyethyl)-5-methyl-2,4-dioxo-1,2,3,4-tetrahydrothieno[2,3-d]pyrimidin-6-yl]methyl}imidazolidin-2-ylidene]carbamate], under setting [1], the IC50 worked out at 16 nM.

On to `Cc1c(CN2CCNC2=O)sc2c1c(=O)n(C(C)C)c(=O)n2CC1CCO1` (racemic) [Example 183, 3-Isopropyl-5-methyl-1-(oxetan-2-ylmethyl)-6-[(2-oxoimidazolidin-1-yl)methyl]thieno[2,3-d]pyrimidine-2,4(1H,3H)-dione], for which, under setting [1], the IC50 was found to be 17 nM.

In turn, `Cc1c(CN2CCNC2=NC#N)sc2c1c(=O)n(C(C)C(F)(F)F)c(=O)n2CCC(F)(F)F` (racemic) [Example 451, [1-{[5-Methyl-2,4-dioxo-3-(1,1,1-trifluoropropan-2-yl)-1-(3,3,3-trifluoropropyl)-1,2,3,4-tetrahydrothieno[2,3-d]pyrimidin-6-yl]methyl}imidazolidin-2-ylidene]cyanamide] showed an IC50 of 10 nM.
